# US20080269161A1, “Compositions and Methods Relating to Mitochondrial Hyperpolarization in Neurological Disease” (priority 2005, published 2008)
# System: hippocampal neurons
# Assay: Dendrite beading and spine loss in hippocampal neurons in vitro
# Type: cell-based, rat
# Conditions: cPAF 130 nM, 60 hours
# Description: (A) cPAF causes dendrite beading and loss of dendritic spines. (A′) Low-magnification images show minimal changes in dendrite morphology and total spine number in control cultures (left). In cPAF-treated cultures (right), dendrite beading (red arrows) is accompanied by spine loss and sprouting of filopodia (green arrowheads) but gross aspects of dendrite structure are preserved. (B) No cells developed dendritic swellings in control cultures, while 55±3% of cPAF-exposed cells beaded. (C) 43±5% of dendritic spines were lost during cPAF exposure, while total spine number was maintained in control cultures.
# An additional pathologic consequence of exposure to HIV-1 neurotoxins is an increase in oxidized cellular phospholipids that can bind to and activate the PAF-R [Marathe, G. K., et al., Vascul Pharmacol, 2002. 38(4): p. 193-200]. Both energetic stress and PAF-R signaling have the potential to impair post-synaptic neurotransmission. Thus, a morphologic correlate of dendrite damage in HAD was identified, which is activity-induced dendritic swelling or “beading” in the presence of the HIV neurotoxin cPAF. […]
# (3) Primary rat hippocampal neurons (HN). […] Dissociated cells are counted by trypan blue viability assay and plated in cell culture plates at 0.5-0.6×10^5 cells/cm^2, on poly-D-lysine-coated cell culture plastic or sterile glass coverslips. […]
structure (smiles),measurement,value
"CCCCCCCCCCCCCCCCOC[C@H](COP(=O)([O-])OCC[N+](C)(C)C)OC(=O)NC [PAF, carbamyl-platelet-activating factor]",cells with dendrite beading,55±3%
same,dendritic spines lost,43±5%
